One experiment relates to tubulin heterodimer. In words: Competitive binding test, [3H]vinblastine. Set-up: species or system bovine. The settings on record: [3H]vinblastine 100 nM. Here is the method:
Medium is RPMI-1640 with L-glutamine, supplemented with 10% heat-inactivated fetal calf serum, 100 units/ml penicillin, and 100 μg/ml streptomycin (Gibco, Grand Island, N.Y.). Microtubule-associated protein (MAP)-rich tubulin, containing about 70% tubulin and 30% MAPs (#ML113), and highly purified tubulin (>99% pure, #TL238), both from bovine brain, are obtained from Cytoskeleton, Inc., Denver, Colo. PEM buffer (80 mM piperazine-N,N′-bis[2-ethanesulfonic acid], pH 6.9, 1 mM ethylene glycol-bis(β-aminoethyl ether)-N,N,N′,N′-tetraacetic acid, 1 mM magnesium chloride) and guanosine 5′-triphosphate (GTP) are also obtained from Cytoskeleton. [3H]paclitaxel, specific activity 14.7 Ci/mmol, is purchased from Moravek Biochemicals (Brea, Calif.). [^3H]vinblastine, specific activity 9.60 Ci/mmol and MicroSpin G-50 columns are obtained from Amersham Biosciences (Piscataway, N.J.). […] Other reagents are obtained from Sigma (St. Louis, Mo.).
The binding of examples of this invention to highly purified tubulin is studied by competitive inhibition methods. […] To study possible competition at the taxane site, on the other hand, polymerized tubulin (microtubules) is used because paclitaxel binds preferentially to microtubules.
Highly purified tubulin is dissolved in PEM buffer without GTP and used at a final concentration of 1.0 to 1.3 mg/ml (10 to 13 μM). […] These solutions are incubated at 24° for 1 hr and then applied to MicroSpin G-50 columns which are centrifuged for 2 min at 3000 rpm in an Eppendorf 5415C microfuge. An aliquot of each column effluent (containing tubulin and bound radioligand) is mixed with scintillation fluid and counted in a liquid scintillation spectrometer. […] The ability of the competitor to inhibit the binding of the radioligand is expressed as a percentage of control binding in the absence of any competitor.

For another experiment, the system named is HeLa cells. In words: Cell cycle analysis with HeLa cells. In kind it is cell-based, human. The settings on record: 18 hr. Here is the method:
HeLa cells are harvested by trypsinization, washed, counted and distributed to wells of 12-well plates at 125,000 cells per well in 2 mL medium. Cells are cultured overnight. […] Cells are continued in culture for 18 hr after compound addition, then cells in each well are harvested (taking care to recover both adherent and non-adherent cells) and processed using the CycleTEST PLUS kit (Becton Dickinson Immunocytometry Systems, San Jose, Calif.). Flow cytometry is done with a FACSort instrument (Becton Dickinson).
This procedure measures the percentages of cells in a population that are in the G1, S, and G2/M phases of the cell cycle. It utilizes staining of cell nuclei with propidium iodide and analysis by flow cytometry.

Each structure is given as a SMILES string.

Here are results for four compounds from patent publication US7507739B2, “6-[(substituted)phenyl]triazolopyrimidines as anticancer agents” (Wyeth, priority 2003, dated 2009).

Consider `CNCCCOc1cc(F)c(-c2c(Cl)nc3ncnn3c2C2CCCCCC2)c(F)c1.O=C(O)C(F)(F)F` [Example 32, 3-[4-(5-Chloro-7-cycloheptyl[1,2,4]triazolo[1,5-a]pyrimidin-6-yl)-3,5-difluorophenoxy]-N-methylpropan-1-amine trifluoroacetic acid salt], for which the “[3H]Vinblastine binding, percent of control without competitor, Mean” value in the experiment with tubulin heterodimer is 15%.
On the same count and under the same terms, the result for `C[C@H](Nc1c(-c2c(F)cc(OCCCO)cc2F)c(Cl)nc2ncnn12)C(F)(F)F` [Example 20, 3-[4-(5-Chloro-7-{[(1S)-2,2,2-trifluoro-1-methylethyl]amino}[1,2,4]triazolo[1,5-a]pyrimidin-6-yl)-3,5-difluorophenoxy]propan-1-ol] reads 19%.
Regarding `CNCCCOc1cc(F)c(-c2c(Cl)nc3ncnn3c2NCC(F)(F)F)c(F)c1.Cl` [Example 3a, 5-Chloro-6-{2,6-difluoro-4-[3-(methylamino)propoxy]phenyl}-N-(2,2,2-trifluoroethyl)[1,2,4]triazolo[1,5-a]pyrimidin-7-amine hydrogen chloride Salt], the “[3H]Vinblastine binding, percent of control without competitor, Mean” value in the experiment with tubulin heterodimer amounted to 11%. Also, the “Percent in Cell Cycle Phase >4N” value is on record as 1% with HeLa cells (20 nM); 2% with HeLa cells (30 nM); 3% in the experiment with HeLa cells (40 nM); 3% in the experiment with HeLa cells (50 nM); 4% in the experiment with HeLa cells (60 nM); 4% in the experiment on HeLa cells (70 nM). Also, the “Percent in Cell Cycle Phase >4N” value in the experiment on HeLa cells (80 nM) came to 5%; in the experiment on HeLa cells (90 nM), 4%; in the experiment with HeLa cells (100 nM) it was 5%; in the experiment with HeLa cells (110 nM) it was 5%; with HeLa cells (120 nM), 5%. The “Percent in Cell Cycle Phase Apop” value with HeLa cells (20 nM) worked out at 29%; with HeLa cells (30 nM) it was 55%; in the experiment on HeLa cells (40 nM), 50%; in the experiment on HeLa cells (50 nM), 32%; in the experiment on HeLa cells (60 nM) it was 25%; with HeLa cells (70 nM) it was 21%. In addition, the “Percent in Cell Cycle Phase Apop” value with HeLa cells (80 nM) worked out at 24%; in the experiment with HeLa cells (90 nM), 23%; in the experiment on HeLa cells (100 nM) it was 25%; in the experiment on HeLa cells (110 nM), 26%; in the experiment with HeLa cells (120 nM), 30%. Also, the “Percent in Cell Cycle Phase G1” value in the experiment on HeLa cells (20 nM) came out at 42%; with HeLa cells (30 nM), 11%; with HeLa cells (40 nM) it was 6%; in the experiment on HeLa cells (50 nM), 5%; in the experiment on HeLa cells (60 nM), 4%; in the experiment with HeLa cells (70 nM) it was 5%. The “Percent in Cell Cycle Phase G1” value in the experiment on HeLa cells (80 nM) worked out at 5%; with HeLa cells (90 nM) it was 5%; with HeLa cells (100 nM), 5%; with HeLa cells (110 nM), 6%; in the experiment on HeLa cells (120 nM) it was 6%. The “Percent in Cell Cycle Phase G2/M” value in the experiment with HeLa cells (20 nM) was found to be 16%; with HeLa cells (30 nM), 21%; in the experiment with HeLa cells (40 nM), 31%; with HeLa cells (50 nM), 52%; in the experiment on HeLa cells (60 nM) it was 58%; in the experiment with HeLa cells (70 nM) it was 61%. In addition, the “Percent in Cell Cycle Phase G2/M” value is listed as 57% in the experiment on HeLa cells (80 nM); 60% in the experiment on HeLa cells (90 nM); 55% with HeLa cells (100 nM); 54% in the experiment with HeLa cells (110 nM); 48% in the experiment with HeLa cells (120 nM). Moreover, the “Percent in Cell Cycle Phase S” value was found to be 12% in the experiment with HeLa cells (20 nM); 11% in the experiment on HeLa cells (30 nM); 10% in the experiment with HeLa cells (40 nM); 8% with HeLa cells (50 nM); 9% in the experiment with HeLa cells (60 nM); 9% in the experiment on HeLa cells (70 nM). Further, the “Percent in Cell Cycle Phase S” value in the experiment with HeLa cells (80 nM) is on record as 11%; in the experiment on HeLa cells (90 nM) it was 8%; in the experiment on HeLa cells (100 nM), 10%; in the experiment on HeLa cells (110 nM), 10%; in the experiment with HeLa cells (120 nM), 12%.
As for `OCCCOc1cc(F)c(-c2c(Cl)nc3ncnn3c2C2CCCCCC2)c(F)c1` [Example 30, 3-[4-(5-Chloro-7-cycloheptyl[1,2,4]triazolo[1,5-a]pyrimidin-6-yl)-3,5-difluorophenoxy]propan-1-ol], in the experiment with tubulin heterodimer, the “[3H]Vinblastine binding, percent of control without competitor, Mean” value is given as 14%.
